Results on eleven compounds are retold here after ChEMBL document CHEMBL1132900, “Methaqualone derivatives are potent noncompetitive AMPA receptor antagonists” (Bioorg Med Chem Lett, 2000).

The target in this assay is Glutamate receptor ionotropic, AMPA (Rattus norvegicus, UniProt P19490+P19491+P19492+P19493).

SMILES strings stand for the structures. pIC50: −log10 of the molar value. A value given as a limit tells only on which side of the number the result lay.

Description: Antagonist potency against functional AMPA receptor by kainate-induced Ca+2 in rat cerebellar granule neurons in primary culture

`Cc1cccc(/C(O)=C/c2nc3ccc(F)cc3c(=O)n2-c2ccccc2Cl)n1` had a pIC50 of 5.26. In the case of `Cc1nc2ccccc2c(=O)n1-c1ccccc1Cl` [MECLOQUALONE] it was under 5.00. In the case of `N#Cc1ccccc1/C(O)=C/c1nc2ccc(F)cc2c(=O)n1-c1ccccc1Cl` it was 6.89. Consider `O=c1c2cc(F)ccc2nc(/C=C(\O)c2ccccc2F)n1-c1ccccc1Cl`, for which the pIC50 was under 4.52. As for `O=c1c2ccccc2nc(/C=C(\O)c2ccncc2)n1-c1ccccc1Cl`, the pIC50 is 6.43. In the case of `O=c1c2cc(F)ccc2nc(/C=C(\O)c2ccccn2)n1-c1ccccc1Cl` it was 6.60; in that of `Cc1ccccc1-n1c(C)nc2ccccc2c1=O` [METHAQUALONE], under 5.00; in that of `O=c1c2ccccc2nc(/C=C(\O)c2ccccn2)n1-c1ccccc1Cl`, 6.31. In turn, `CC1=NN=C(c2ccc(N)cc2)c2cc3c(cc2C1)OCO3` [GYKI-52466] gave a pIC50 of 4.66. In the case of `N#Cc1cccnc1/C(O)=C/c1nc2ccc(F)cc2c(=O)n1-c1ccccc1Cl` it was 7.85; in that of `Cc1ccc(C#N)c(/C(O)=C/c2nc3ccc(F)cc3c(=O)n2-c2ccccc2Cl)n1`, 8.03.
